Results taken from patent US20230000773A1, “NOVEL HEADGROUP LIPID COMPOUNDS AND COMPOSITIONS FOR INTRACELLULAR DELIVERY OF THERAPEUTIC AGENTS” (ModernaTX, Inc., priority 2019, published 2023).

Experiments:
[1] = Size and polydispersity index of nanoparticles comprising compounds of the disclosure; type: physicochemical; conditions: compound:DSPC:cholesterol:PEG 2 50:10:38:2 mol %
Description: Lipid nanoparticles (e.g., empty LNPs or loaded LNPs) may be characterized by a variety of methods. For example, microscopy (e.g., transmission electron microscopy or scanning electron microscopy) may be used to examine the morphology and size distribution of a nanoparticle composition. Dynamic light scattering or potentiometry (e.g., potentiometric titrations) may be used to measure zeta potentials. Dynamic light scattering may also be utilized to determine particle sizes. Instruments such as the Zetasizer Nano ZS (Malvern Instruments Ltd, Malvern, Worcestershire, UK) may also be used to measure multiple characteristics of a nanoparticle composition, such as particle size, polydispersity index, and zeta potential.
(§1) Nanoparticle compositions including a therapeutic and/or prophylactic can be optimized according to the selection of a compound according to Formula (I), (I-1), (A), (A-1), (A-1a), or (A-1b), the selection of additional lipids, the amount of each lipid in the lipid component, and the wt:wt ratio of the lipid component to the therapeutic and/or prophylactic. Nanoparticle compositions including DSPC as a phospholipid, cholesterol as a structural lipid, PEG 2 as a PEG lipid, and a compound according to Formula (I), (I-1), (A), (A-1), (A-1a), or (A-1b) were prepared. The ratios of the lipids were 50:10:38:2 mol % for the lipid according to Formula (I), (I-1), (A), (A-1), (A-1a), or (A-1b):DSPC:cholesterol:PEG 2. […]

[2] = Encapsulation efficiency (% EE), ribogreen; type: physicochemical; conditions: nanoparticles, compound:DSPC:cholesterol:PEG 2 50:10:38:2 mol %
Description: The efficiency of encapsulation of a therapeutic and/or prophylactic describes the amount of therapeutic and/or prophylactic that is encapsulated or otherwise associated with a lipid nanoparticle (e.g., an empty LNP or a loaded LNP) after preparation, relative to the initial amount provided. The encapsulation efficiency is desirably high (e.g., close to 100%). The encapsulation efficiency may be measured, for example, by comparing the amount of therapeutic and/or prophylactic in a solution containing the lipid nanoparticle (e.g., an empty LNP or a loaded LNP) before and after breaking up the lipid nanoparticle (e.g., an empty LNP or a loaded LNP) with one or more organic solvents or detergents. Fluorescence may be used to measure the amount of free therapeutic and/or prophylactic (e.g., RNA) in a solution.
as §1

[3] = Apparent LNP pKa by 2-(p-toluidino)-6-napthalene sulfonic acid (TNS) assay; type: physicochemical; conditions: pH at half of maximum fluorescence
[4] = Heparin-sepharose binding of nanoparticles
[5] = tested on: hEPO mRNA; assay: hEPO expression in CD1-mice after intravenous administration of nanoparticles; type: in vivo; conditions: 6 h after intravenous administration, mRNA dose 0.5 mg/kg, N:P 3.4, compound:DSPC:cholesterol:PEG 2 50:10:38:2
Description: The expression of hEPO mRNA in CD1-mice was measured 6 h after intravenous administration of nanoparticles comprising a compound of the disclosure, DSPC, cholesterol, and PEG 2 in a ratio of 50:10:38:2. […] Each composition was dosed to 8 animals at an mRNA dose of 0.5 mg/kg.

[6] = Surface hydrophobicity by Generalized Polarization by Laurdan (GPL); type: physicochemical; conditions: normalized Generalized Polarization by Laurdan; higher N-GP = less polar surface
Description: Nanoparticle compositions including a therapeutic and/or prophylactic can be optimized according to the selection of a compound according to Formula (I), (I-1), (A), (A-1), (A-1a), or (A-1b), the selection of additional lipids, the amount of each lipid in the lipid component, and the wt:wt ratio of the lipid component to the therapeutic and/or prophylactic. Nanoparticle compositions including DSPC as a phospholipid, cholesterol as a structural lipid, PEG 2 as a PEG lipid, and a compound according to Formula (I), (I-1), (A), (A-1), (A-1a), or (A-1b) were prepared. The ratios of the lipids were 50:10:38:2 mol % for the lipid according to Formula (I), (I-1), (A), (A-1), (A-1a), or (A-1b):DSPC:cholesterol:PEG 2.
Laurdan, a fluorescent aminonaphthalene ketone lipid, was post-inserted into the nanoparticle surface and the fluorescence spectrum of Laurdan was collected to determine the normalized Generalized Polarization (N-GP). Higher N-GP indicates a less polar surface.

In the case of `CCCCCCCCC(CC)OC(=O)CCCCCCCN(CCCCCCCC(=O)OC(CCCCCCCC)CCCCCCCC)CCCNC1=NS(=O)(=O)N=C1NC` (stereo not drawn) [Compound 2, Heptadecan-9-yl 8-((3-((4-(methylamino)-1,1-dioxido-1,2,5-thiadiazol-3-yl)amino)propyl)(8-oxo-8-(undecan-3-yloxy)octyl)amino)octanoate], the PDI [1] was 0.104, the “Size (nm)” value [1] was 60.8 nm and the “% EE (ribogreen)” value [2] was 95.1%. For the same compound, the “LogIC50 (pKa)” value [3] was 7.65, the “Relative % Area Bound by LNP” value [4] was 21.86% and the “Avg. [hEPO] mIU/mL” value [5] was 6.57E+04 mIU/mL.

With `CCCCCCCCC(CC)OC(=O)CCCCCCCN(CCCCCCCC(=O)OC(CCCCCCCC)CCCCCCCC)CCCNc1c(Cl)c(=O)n(C)n(C)c1=O` (stereo not drawn) [Compound 6, Heptadecan-9-yl 8-((3-((5-chloro-1,2-dimethyl-3,6-dioxo-1,2,3,6-tetrahydropyridazin-4-yl)amino)propyl)(8-oxo-8-(undecan-3-yloxy)octyl)amino)octanoate] the PDI [1] was 0.088, the “Size (nm)” value [1] was 68.4 nm and the “% EE (ribogreen)” value [2] was 97.9%. For the same compound, the “LogIC50 (pKa)” value [3] was 6.00, the “Relative % Area Bound by LNP” value [4] was 0% and the “Avg. [hEPO] mIU/mL” value [5] was 8.12E+04 mIU/mL.

In the case of `CCCCCCCCC(CC)OC(=O)CCCCCCCN(CCCCCCCC(=O)OC(CCCCCCCC)CCCCCCCC)CCCNC(=O)C(=O)NC` (stereo not drawn) [Compound 12, Heptadecan-9-yl 8-((3-(2-(methylamino)-2-oxoacetamido)propyl)(8-oxo-8-(undecan-3-yloxy)octyl)amino)octanoate], the PDI [1] was 0.139, the “Size (nm)” value [1] was 78.9 nm and the “% EE (ribogreen)” value [2] was 85.0%. For the same compound, the “LogIC50 (pKa)” value [3] was 6.13, the “Relative % Area Bound by LNP” value [4] was 1.43% and the “Avg. [hEPO] mIU/mL” value [5] was 2.29E+05 mIU/mL.

For `CCCCCCCCC(CC)OC(=O)CCCCCCCN(CCCCCCCC(=O)OC(CCCCCCCC)CCCCCCCC)CCCNC(C(N)=O)C(N)=O` (stereo not drawn) [Compound 14, Heptadecan-9-yl 8-((3-((1,3-diamino-1,3-dioxopropan-2-yl)amino)propyl)(8-oxo-8-(undecan-3-yloxy)octyl)amino)octanoate], the PDI [1] was 0.167, the “Size (nm)” value [1] was 91.2 nm and the “% EE (ribogreen)” value [2] was 98.9%. For the same compound, the “LogIC50 (pKa)” value [3] was 7.20, the “Relative % Area Bound by LNP” value [4] was 69.04% and the “Avg. [hEPO] mIU/mL” value [5] was 6.20E+04 mIU/mL.

In the case of `CCCCCCCCC(CC)OC(=O)CCCCCCCN(CCCCCCCC(=O)OC(CCCCCCCC)CCCCCCCC)CCCNC(=O)CC(=O)NC` (stereo not drawn) [Compound 17, Heptadecan-9-yl 8-({3-[2-(methylcarbamoyl)acetamido]propyl}[8-oxo-8-(undecan-3-yloxy)octyl]amino)octanoate], the PDI [1] was 0.178, the “Size (nm)” value [1] was 80.8 nm and the “% EE (ribogreen)” value [2] was 98.4%. For the same compound, the “LogIC50 (pKa)” value [3] was 7.23, the “Relative % Area Bound by LNP” value [4] was 37.96% and the “Avg. [hEPO] mIU/mL” value [5] was 7.95E+04 mIU/mL.

With `CCCCCCCCC(CC)OC(=O)CCCCCCCN(CCCCCCCC(=O)OC(CCCCCCCC)CCCCCCCC)CCCNc1cc[nH]c(=O)n1` (stereo not drawn) [Compound 21, Heptadecan-9-yl 8-((3-((2-oxo-1,2-dihydropyrimidin-4-yl)amino)propyl)(8-oxo-8-(undecan-3-yloxy)octyl)amino)octanoate] the PDI [1] was 0.141, the “Size (nm)” value [1] was 62.5 nm and the “% EE (ribogreen)” value [2] was 99.4%. The “LogIC50 (pKa)” value [3] was 7.59, the “Relative % Area Bound by LNP” value [4] was 50.19% and the “Avg. [hEPO] mIU/mL” value [5] was 7.04E+04 mIU/mL.

In the case of `CCCCCCCCC(CC)OC(=O)CCCCCCCN(CCCCCCCC(=O)OC(CCCCCCCC)CCCCCCCC)CCCNc1cc(=O)[nH]c(=O)[nH]1` (stereo not drawn) [Compound 24, Heptadecan-9-yl 8-((3-((2,6-dioxo-1,2,3,6-tetrahydropyrimidin-4-yl)amino)propyl)(8-oxo-8-(undecan-3-yloxy)octyl)amino)octanoate], the PDI [1] was 0.114, the “Size (nm)” value [1] was 60.8 nm and the “% EE (ribogreen)” value [2] was 98.8%. For the same compound, the “LogIC50 (pKa)” value [3] was 6.56, the “Relative % Area Bound by LNP” value [4] was 0% and the “Avg. [hEPO] mIU/mL” value [5] was 2.05E+05 mIU/mL.

With `CCCCCCCCC(CC)OC(=O)CCCCCCCN(CCCCCCCC(=O)OC(CCCCCCCC)CCCCCCCC)CCCNc1nc2[nH]cnc2c(=O)[nH]1` (stereo not drawn) [Compound 29, Heptadecan-9-yl 8-((3-((6-oxo-6,9-dihydro-1H-purin-2-yl)amino)propyl)(8-oxo-8-(undecan-3-yloxy)octyl)amino)octanoate] the PDI [1] was 0.199, the “Size (nm)” value [1] was 63.5 nm and the “% EE (ribogreen)” value [2] was 98.9%. The “LogIC50 (pKa)” value [3] was 6.68, the “Relative % Area Bound by LNP” value [4] was 6.45% and the “Avg. [hEPO] mIU/mL” value [5] was 8.93E+04 mIU/mL.

For `CCCCCCCCC(CC)OC(=O)CCCCCCCN(CCCCCCCC(=O)OC(CCCCCCCC)CCCCCCCC)CCCNc1ncncc1NC` (stereo not drawn) [Compound 35, Heptadecan-9-yl 8-((3-((5-(methylamino)pyrimidin-4-yl)amino)propyl)(8-oxo-8-(undecan-3-yloxy)octyl)amino)octanoate], the PDI [1] was 0.176, the “Size (nm)” value [1] was 91.2 nm and the “% EE (ribogreen)” value [2] was 96%. For the same compound, the “LogIC50 (pKa)” value [3] was 7.27, the “Average N-GP” value [6] was 0.888 and the “Relative % Area Bound by LNP” value [4] was 2.90%. The “Avg. [hEPO] mIU/mL” value [5] was 3.71E+05 mIU/mL.

In the case of `CCCCCCCCC(CC)OC(=O)CCCCCCCN(CCCCCCCC(=O)OC(CCCCCCCC)CCCCCCCC)CCCNC1=CC(=O)NC1` (stereo not drawn) [Compound 45, Heptadecan-9-yl 8-((3-((5-oxo-2,5-dihydro-1H-pyrrol-3-yl)amino)propyl)(8-oxo-8-(undecan-3-yloxy)octyl)amino)octanoate], the PDI [1] was 0.141, the “Size (nm)” value [1] was 81.8 nm and the “% EE (ribogreen)” value [2] was 98.5%. The “LogIC50 (pKa)” value [3] was 6.85, the “Average N-GP” value [6] was 0.655 and the “Relative % Area Bound by LNP” value [4] was 31.46%. For the same compound, the “Avg. [hEPO] mIU/mL” value [5] was 1.15E+05 mIU/mL.

With `CCCCCCCCC(CC)OC(=O)CCCCCCCN(CCCCCCCC(=O)OC(CCCCCCCC)CCCCCCCC)CCCn1ccc2cc([N+](=O)[O-])ccc21` (stereo not drawn) [Compound 48, Heptadecan-9-yl 8-((3-(5-nitro-1H-indol-1-yl)propyl)(8-oxo-8-(undecan-3-yloxy)octyl)amino)octanoate] the PDI [1] was 0.196, the “Size (nm)” value [1] was 54.3 nm and the “% EE (ribogreen)” value [2] was −11.2%. The “LogIC50 (pKa)” value [3] was 6.41, the “Relative % Area Bound by LNP” value [4] was 0% and the “Avg. [hEPO] mIU/mL” value [5] was 0 mIU/mL.

With `CCCCCCCCC(CC)OC(=O)CCCCCCCN(CCCCCCCC(=O)OC(CCCCCCCC)CCCCCCCC)CCCNc1noc(N)n1` (stereo not drawn) [Compound 50, Heptadecan-9-yl 8-((3-((5-amino-1,2,4-oxadiazol-3-yl)amino)propyl)(8-oxo-8-(undecan-3-yloxy)octyl)amino)octanoate] the PDI [1] was 0.18, the “Size (nm)” value [1] was 69.8 nm and the “% EE (ribogreen)” value [2] was 98.1%. For the same compound, the “LogIC50 (pKa)” value [3] was 6.09, the “Relative % Area Bound by LNP” value [4] was 0% and the “Avg. [hEPO] mIU/mL” value [5] was 1.91E+05 mIU/mL.

In the case of `CCCCCCCCC(CC)OC(=O)CCCCCCCN(CCCCCCCC(=O)OC(CCCCCCCC)CCCCCCCC)CCCN/C=C1/NC(=O)NC1=O` (stereo not drawn) [Compound 52], the PDI [1] was 0.22, the “Size (nm)” value [1] was 53.7 nm and the “% EE (ribogreen)” value [2] was 98.2%.

With `CCCCCCCCC(CC)OC(=O)CCCCCCCN(CCCCCCCC(=O)OC(CCCCCCCC)CCCCCCCC)CCCNC1=NCC(=O)N1` (stereo not drawn) [Compound 57, Heptadecan-9-yl 8-((3-((4-oxo-4,5-dihydro-1H-imidazol-2-yl)amino)propyl)(8-oxo-8-(undecan-3-yloxy)octyl)amino)octanoate] the PDI [1] was 0.132, the “Size (nm)” value [1] was 58.8 nm and the “% EE (ribogreen)” value [2] was 98.2%. For the same compound, the “LogIC50 (pKa)” value [3] was 6.52, the “Average N-GP” value [6] was 0.582 and the “Relative % Area Bound by LNP” value [4] was 1.09%. For the same compound, the “Avg. [hEPO] mIU/mL” value [5] was 4.21E+04 mIU/mL.
